Data from US20160022668A1, “APPLICATION OF CINCHONA ALKALOID DERIVATIVES AS CYTOTOXIC COMPOUNDS” (ADAM MICKIEWICZ UNIVERSITY, priority 2014, published 2016).
“And” between values parts separate entries of the source, which are not always exact repeats. Identical values can stand only once. Like-named read-outs stand apart in the source and are kept apart here.

What was measured:
[1] = test system: MCF-7 line (breast cancer); assay: Sulphorhodamine B cytotoxicity test, MCF-7 line; format: cell-based; details: for IC50 / Cytotoxic activity class, MCF-7 line (breast cancer) / Cytotoxic activity, IC50, MCF-7 line (breast cancer): 72 hours incubation, sulphorhodamine B
Protocol: (§1) Cytotoxic activity tests were performed using the following cancer cell lines: MCF-7 (breast cancer), HeLa (cervical cancer) A549 (pulmonary cancer) and KB (nasopharynx cancer) obtained from ECACC (European Collection of Cell Cultures). Cytotoxicity tests were carried out using a standard procedure with sulphorhodamine B. They involved incubation of the cancer cell lines in the logarithmic growth phase for 72 hours with the compound tested and, subsequently, spectrophotometric determination of the degree of cell growth inhibition using adsorption of a dye (sulphorhodamine B) which binds cellular proteins. The determination was carried out according to a procedure reported in: Vichai, V., Kirtikara, K. […] Solutions of the test compounds were prepared in DMSO in the following concentration range: 0.05; 0.1; 0.5; 1; 5; 10; 50; 100 μM. The cells of the lines tested were treated with the solutions of the test compounds in a laminar-flow chamber which ensured sterile working conditions according to the following procedure: the first three wells were used as a control: they contained 20 μL of DMSO only; successive solutions of the test compound were added to subsequent wells (20 μL), starting with the lowest concentration (three wells for each concentration level). Subsequently, the plates were placed in an incubator for 72 hours. After the end of incubation, the adhered cells were fixed by adding 500 μL of cold (4° C.) 50% trichloroacetic acid (TCA) and incubated at 4° C. for 1 hour. Subsequently, each well was rinsed with sterile water and dried. The operation was repeated five times. The fixed cells were stained for 30 minutes by adding 500 μL of 0.4% of a dye solution (sulphorhodamine B) dissolved in 1% acetic acid. […] Subsequently, the plates were dried in air for approx. 5 minutes. Any […] dye was dissolved by adding 1500 μL of […] Tris-base buffer (trishydroxymethylaminomethane) to each well and shaken using an orbital shaker for 5 minutes. […] Depending on the type of the cell line, the following growth media were used: • the MCF-7 line was grown in Dulbecco's Modified Eagle's Medium (DME) from Sigma (cat. no. […] R8758). […] Program Procedure. Instruction and technical documentation change notice, instruction 14. Screening data summary interpretation and outline of current screening. Edition NCI NIH, Bethesda Rev., 1980, 6, 31-62).

HeLa (cervical cancer) = assay: Sulphorhodamine B cytotoxicity test, HeLa line; format: cell-based; details: for IC50 / Cytotoxic activity class, HeLa (cervical cancer) / Cytotoxic activity, IC50, HeLa (cervical cancer): 72 hours incubation, sulphorhodamine B
Protocol: as §1

A549 (lung cancer) = assay: Sulphorhodamine B cytotoxicity test, A549 line; format: cell-based; details: for IC50 / Cytotoxic activity class, A549 (lung cancer) / Cytotoxic activity, IC50, A549 (lung cancer): 72 hours incubation, sulphorhodamine B
Protocol: as §1

KB (nasopharynx cancer) = assay: Sulphorhodamine B cytotoxicity test, KB line; format: cell-based; details: for IC50 / Cytotoxic activity, IC50, KB (nasopharynx cancer): 72 hours incubation, sulphorhodamine B
Protocol: Cytotoxic activity tests were performed using the following cancer cell lines: MCF-7 (breast cancer), HeLa (cervical cancer) A549 (pulmonary cancer) and KB (nasopharynx cancer) obtained from ECACC (European Collection of Cell Cultures).
Cytotoxicity tests were carried out using a standard procedure with sulphorhodamine B. They involved incubation of the cancer cell lines in the logarithmic growth phase for 72 hours with the compound tested and, subsequently, spectrophotometric determination of the degree of cell growth inhibition using adsorption of a dye (sulphorhodamine B) which binds cellular proteins. The determination was carried out according to a procedure reported in: Vichai, V., Kirtikara, K. Nature Protocols, 2006, 1, 1112.
Preparation of Cells for the Experiment:
Cancerous cells of the cell line tested in the logarithmic growth phase were seeded onto 24-well plates in a quantity of 20,000 cells/2 mL of the growth medium per well and, subsequently, incubated in an incubator at 37° C., in the 5% CO2 atmosphere for 24 hours.
Preparation of Test Compound Solutions:
Solutions of the test compounds were prepared in DMSO in the following concentration range: 0.05; 0.1; 0.5; 1; 5; 10; 50; 100 μM.
The cells of the lines tested were treated with the solutions of the test compounds in a laminar-flow chamber which ensured sterile working conditions according to the following procedure: the first three wells were used as a control: they contained 20 μL of DMSO only; successive solutions of the test compound were added to subsequent wells (20 μL), starting with the lowest concentration (three wells for each concentration level). Subsequently, the plates were placed in an incubator for 72 hours.
After the end of incubation, the adhered cells were fixed by adding 500 μL of cold (4° C.) 50% trichloroacetic acid (TCA) and incubated at 4° C. for 1 hour. Subsequently, each well was rinsed with sterile water and dried. The operation was repeated five times. The fixed cells were stained for 30 minutes by adding 500 μL of 0.4% of a dye solution (sulphorhodamine B) dissolved in 1% acetic acid. Any unbound dye was removed by decanting it from the plate, and the cells were washed 4 times with 1% acetic acid. Subsequently, the plates were dried in air for approx. 5 minutes. Any […] dye was dissolved by adding 1500 μL of […] Tris-base buffer (trishydroxymethylaminomethane) to each well and shaken using an orbital shaker for 5 minutes. Subsequently, 200 μL of solution from each well was transferred to each of two wells on a new 96-well plate and absorption of the solutions was determined spectrophotometrically at a wavelength of 490-530 nm using a plate reader.
Depending on the type of the cell line, the following growth media were used: • the MCF-7 line was grown in Dulbecco's Modified Eagle's Medium (DME) from Sigma (cat. no. D5796), • the HeLa, A549 and KB lines were grown in RPMI-1640 Medium from Sigma (cat. no. R8758).
IC50 values, denoting concentration of a compound needed to obtain 50% inhibition of cell growth, were determined for all the derivatives tested.

[2] = test system: breast cancer cells (MCF-7); details: in vitro; Martirosyan et al. 2004; read-out: IC50, inhibition of growth and differentiation of breast cancer cells (MCF-7); cited from earlier work
[3] = Homo sapiens, MCF7, average of three determinations, read-out: Cytotoxic activity, IC50, MCF-7 line (breast cancer)
[4] = Homo sapiens, HeLa, average of three determinations, read-out: Cytotoxic activity, IC50, HeLa (cervical cancer)
[5] = Homo sapiens, A549, average of three determinations, read-out: Cytotoxic activity, IC50, A549 (lung cancer)
[6] = average of three determinations, read-out: Cytotoxic activity, IC50, KB (nasopharynx cancer)
[7] = Homo sapiens, MCF7, read-out: Cytotoxic activity class, MCF-7 line (breast cancer)
[8] = Homo sapiens, HeLa, read-out: Cytotoxic activity class, HeLa (cervical cancer)
[9] = Homo sapiens, A549, read-out: Cytotoxic activity class, A549 (lung cancer)
[10] = read-out: Cytotoxic activity class, KB (nasopharynx cancer)
[11] = average of three determinations
[12] = average of three determinations, read-out: Cytotoxic activity, IC50, MCF-7 line (breast cancer)
[13] = average of three determinations, read-out: Cytotoxic activity, IC50, HeLa (cervical cancer)
[14] = average of three determinations, read-out: Cytotoxic activity, IC50, A549 (lung cancer)

Compound	IC50 [1, 3]	IC50 (HeLa (cervical cancer); [4])	IC50 (A549 (lung cancer); [5])	IC50 (KB (nasopharynx cancer); [6])	IC50 [1, 7] [µg/mL]	IC50 (HeLa (cervical cancer); [8]) [µg/mL]	IC50 (A549 (lung cancer); [9]) [µg/mL]	IC50 (KB (nasopharynx cancer); [10]) [µg/mL]	Cytotoxic activity class, MCF-7 line (breast cancer) [1]	Cytotoxic activity, IC50, MCF-7 line (breast cancer) [1, 11] [µg/mL]	IC50 [1, 12] [µM]	Cytotoxic activity class, HeLa (cervical cancer) (HeLa (cervical cancer))	Cytotoxic activity, IC50, HeLa (cervical cancer) (HeLa (cervical cancer); [11]) [µg/mL]	IC50 (HeLa (cervical cancer); [13]) [µM]	Cytotoxic activity class, A549 (lung cancer) (A549 (lung cancer))	Cytotoxic activity, IC50, A549 (lung cancer) (A549 (lung cancer); [11]) [µg/mL]	IC50 (A549 (lung cancer); [14]) [µM]	Cytotoxic activity, IC50, KB (nasopharynx cancer) (KB (nasopharynx cancer); [11]) [µg/mL]	further results
C=C[C@H]1C[N@@]2CC[C@H]1C[C@@H]2[C@@H](O)c1ccnc2ccccc12 [cinchonine, reference compound]	> 50 µg/mL	> 50 µg/mL	> 50 µg/mL	> 50 µg/mL	–	–	–	–	–	–	–	–	–	–	–	–	–	–	–
O=c1[nH]cc(F)c(=O)[nH]1 [5-fluorouracil, reference compound]	18.2 µg/mL and 140 µM	21 µg/mL and 161 µM	21.4 µg/mL and 165 µM	22 µg/mL and 169 µM	4 to 30	4 to 30	4 to 30	4 to 30	–	–	–	–	–	–	–	–	–	–	–
C#CCO[C@@H](c1ccnc2ccccc12)[C@H]1C[C@@H]2CCN1C[C@@H]2C=C [PCN, 9-O-propargylcinchonine]	–	–	–	9.63 µM	–	–	–	< 4	(A) (IC50<4 μg/mL are generally assumed as active (abbreviated as A))	3.0	9.02	(A) (IC50<4 μg/mL are generally assumed as active (abbreviated as A))	3.5	10.5	(A) (IC50<4 μg/mL are generally assumed as active (abbreviated as A))	3.9	11.7	3.2	times as cytotoxic as 5FU ([1]; MCF-7 line, ratio of IC50 to 5FU): more than six times; times as active as 5FdU ([1]; MCF-7 line, ratio of IC50 to 5FdU): 3.8 times; times as cytotoxic as 5FU (HeLa (cervical cancer); HeLa line, ratio of IC50 to 5FU): six times; times as cytotoxic as 5FdU (HeLa (cervical cancer); HeLa line, ratio of IC50 to 5FdU): 3.7 times; times as cytotoxic as 5FU (A549 (lung cancer); A549 line, ratio of IC50 to 5FU): more than five times; times as cytotoxic as 5FdU (A549 (lung cancer); A549 line, ratio of IC50 to 5FdU): more than three times; times as high activity compared to 5FU (KB (nasopharynx cancer); KB line, ratio of IC50 to 5FU): 6.8 times; times as high activity compared to 5FdU (KB (nasopharynx cancer); KB line, ratio of IC50 to 5FdU): 4.3 times
O=c1[nH]c(=O)n([C@H]2C[C@H](O)[C@@H](CO)O2)cc1F [5-fluoro-2′-deoxyuridine, reference compound]	11.4 µg/mL and 46.3 µM	13 µg/mL and 52.8 µM	13.4 µg/mL and 54.4 µM	13.7 µg/mL and 55.6 µM	4 to 30	4 to 30	4 to 30	4 to 30	–	–	–	–	–	–	–	–	–	–	–
C=C[C@H]1C[N@@]2CC[C@H]1C[C@H]2[C@H](O)c1ccnc2ccc(OC)cc12 [quinine]	–	–	–	–	–	–	–	–	–	–	–	–	–	–	–	–	–	–	IC50 [2]: 40 µM
9-O-propargylcinchonidine [PCD]	–	–	–	28.6 µM	–	–	–	4 to 30	(MA) (IC50 range of 4-30 μg/mL are considered medium active (abbreviated as MA))	9.3	28	(MA) (IC50 range of 4-30 μg/mL are considered medium active (abbreviated as MA))	10.0	30.1	(MA) (IC50 range of 4-30 μg/mL are considered medium active (abbreviated as MA))	16.0	48.1	9.5	reduction in cytotoxic activity on change to the opposite configuration (8S,9R) ([1]; PCD versus PCN, general statement, not tied to one cell line): about 3 fold
